Measured values: patent publication US11053246B2, “Substituted tricyclic compounds as FGFR inhibitors” (Incyte Corporation, priority 2012, dated 2021)

Columns and labels:
Format in all cases: biochemical
FGFR1 = FGFR1 (Homo sapiens (Human), UniProt P11362); assay: FGFR Enzymatic Assay (FRET peptide phosphorylation), FGFR1; details: FGFR1 enzyme 0.02 nM, ATP 210 μM, 25° C., 1 hr
FGFR3 = FGFR3 (Homo sapiens (Human), UniProt P22607); assay: FGFR Enzymatic Assay (FRET peptide phosphorylation), FGFR3; details: FGFR3 enzyme (Millipore), ATP 140 μM, 25° C., 1 hr
Chain of FGFR3 (P22607 23-806): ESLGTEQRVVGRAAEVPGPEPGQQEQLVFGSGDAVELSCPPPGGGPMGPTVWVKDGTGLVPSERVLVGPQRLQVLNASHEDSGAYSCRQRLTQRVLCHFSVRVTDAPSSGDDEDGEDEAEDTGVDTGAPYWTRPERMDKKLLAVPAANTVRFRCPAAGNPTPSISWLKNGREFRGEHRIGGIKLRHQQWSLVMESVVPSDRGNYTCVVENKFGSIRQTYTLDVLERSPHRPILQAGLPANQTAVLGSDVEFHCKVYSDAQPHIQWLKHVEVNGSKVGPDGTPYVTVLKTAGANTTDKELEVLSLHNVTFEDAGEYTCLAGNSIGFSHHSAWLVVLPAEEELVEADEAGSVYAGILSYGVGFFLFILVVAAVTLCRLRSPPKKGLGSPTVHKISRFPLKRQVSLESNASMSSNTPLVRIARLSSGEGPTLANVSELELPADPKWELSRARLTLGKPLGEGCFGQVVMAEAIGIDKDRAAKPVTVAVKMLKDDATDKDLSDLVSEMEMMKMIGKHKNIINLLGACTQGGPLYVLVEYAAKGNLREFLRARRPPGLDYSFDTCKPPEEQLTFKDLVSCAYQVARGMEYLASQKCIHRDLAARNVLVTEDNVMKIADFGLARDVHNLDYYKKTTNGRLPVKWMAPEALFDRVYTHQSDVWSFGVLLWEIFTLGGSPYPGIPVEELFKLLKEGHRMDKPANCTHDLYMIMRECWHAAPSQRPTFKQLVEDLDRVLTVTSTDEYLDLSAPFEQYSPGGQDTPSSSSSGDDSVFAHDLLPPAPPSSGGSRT
Experimental: (§1) The inhibitor potency of the exemplified compounds was measured in an enzyme assay that measures peptide phosphorylation using FRET measurements to detect product formation. Inhibitors were serially diluted in DMSO and a volume of 0.5 μL was transferred to the wells of a 384-well plate. For FGFR3, a 10 μL volume of FGFR3 enzyme (Millipore) diluted in assay buffer (50 mM HEPES, 10 mM MgCl2, 1 mM EGTA, 0.01% Tween-20, 5 mM DTT, pH 7.5) was added to the plate and pre-incubated for 5-10 minutes. Appropriate controls (enzyme blank and enzyme with no inhibitor) were included on the plate. […] The plate was incubated at 25° C. for 1 hr. […] The plate was allowed to equilibrate for ˜1 hr before scanning the wells on a PheraStar plate reader (BMG Labtech).
(§2) GraphPad prism3 was used to analyze the data. The IC50 values were derived by fitting the data to the equation for a sigmoidal dose-response with a variable slope. Y=Bottom+(Top−Bottom)/(1+10^((Log IC50−X)*HillSlope)) where X is the logarithm of concentration and Y is the response.

FGFR2 = FGFR2 (Homo sapiens (Human), UniProt P21802); assay: FGFR Enzymatic Assay (FRET peptide phosphorylation), FGFR2; details: FGFR2 enzyme 0.01 nM, ATP 100 μM, 25° C., 1 hr
Chain of FGFR2 (P21802 22-821): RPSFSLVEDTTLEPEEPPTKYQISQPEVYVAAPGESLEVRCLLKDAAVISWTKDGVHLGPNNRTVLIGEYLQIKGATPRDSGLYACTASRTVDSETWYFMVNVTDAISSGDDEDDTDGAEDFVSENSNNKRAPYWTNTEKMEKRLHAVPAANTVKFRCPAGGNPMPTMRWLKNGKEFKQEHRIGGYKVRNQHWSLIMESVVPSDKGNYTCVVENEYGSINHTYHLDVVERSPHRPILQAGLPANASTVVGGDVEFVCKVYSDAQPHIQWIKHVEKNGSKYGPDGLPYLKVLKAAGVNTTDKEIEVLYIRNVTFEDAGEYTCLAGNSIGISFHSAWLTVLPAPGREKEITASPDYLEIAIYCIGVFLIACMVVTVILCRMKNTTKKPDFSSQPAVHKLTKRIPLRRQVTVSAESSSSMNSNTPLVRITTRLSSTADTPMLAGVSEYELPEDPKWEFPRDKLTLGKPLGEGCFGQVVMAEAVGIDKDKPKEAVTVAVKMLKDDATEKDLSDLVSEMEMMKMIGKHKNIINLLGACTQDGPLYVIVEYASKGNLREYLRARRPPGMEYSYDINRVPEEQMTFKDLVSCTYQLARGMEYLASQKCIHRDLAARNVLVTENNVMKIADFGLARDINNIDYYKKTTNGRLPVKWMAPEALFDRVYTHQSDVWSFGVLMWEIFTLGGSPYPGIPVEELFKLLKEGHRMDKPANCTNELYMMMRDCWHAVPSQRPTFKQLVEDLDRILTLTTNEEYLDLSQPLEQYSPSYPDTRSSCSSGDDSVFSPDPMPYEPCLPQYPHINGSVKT
Experimental: as §1
The enzymes were purchased from Millipore or Invitrogen.
as §2

Measured: IC50

Chain of FGFR1 (P11362 22-822): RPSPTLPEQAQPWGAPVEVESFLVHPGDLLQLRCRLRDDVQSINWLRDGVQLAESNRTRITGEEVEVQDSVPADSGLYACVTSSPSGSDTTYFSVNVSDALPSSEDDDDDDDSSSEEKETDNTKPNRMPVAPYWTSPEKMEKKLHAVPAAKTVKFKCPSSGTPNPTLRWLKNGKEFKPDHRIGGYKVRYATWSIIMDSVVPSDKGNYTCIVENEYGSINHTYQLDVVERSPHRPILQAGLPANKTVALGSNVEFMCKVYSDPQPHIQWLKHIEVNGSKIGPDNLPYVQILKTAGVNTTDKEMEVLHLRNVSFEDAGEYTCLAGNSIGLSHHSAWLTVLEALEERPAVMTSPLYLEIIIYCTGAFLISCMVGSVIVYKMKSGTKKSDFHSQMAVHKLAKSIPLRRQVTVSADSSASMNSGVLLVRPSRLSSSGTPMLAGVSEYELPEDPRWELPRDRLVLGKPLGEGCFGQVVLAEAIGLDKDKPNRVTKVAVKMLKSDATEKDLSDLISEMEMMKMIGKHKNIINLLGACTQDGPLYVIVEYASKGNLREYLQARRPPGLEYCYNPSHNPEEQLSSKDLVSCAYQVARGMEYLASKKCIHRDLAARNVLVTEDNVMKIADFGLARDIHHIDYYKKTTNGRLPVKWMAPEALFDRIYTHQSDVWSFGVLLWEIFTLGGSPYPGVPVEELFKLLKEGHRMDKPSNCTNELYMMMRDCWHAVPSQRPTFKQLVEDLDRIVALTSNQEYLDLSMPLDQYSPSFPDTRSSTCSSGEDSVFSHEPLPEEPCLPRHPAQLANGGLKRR

CCN1C(=O)N(c2c(F)c(OC)cc(OC)c2Cl)Cc2cnc3c(c21)CC(=O)N3 [Example 63, 3-(2-chloro-6-fluoro-3,5-dimethoxyphenyl)-1-ethyl-3,4,7,9-tetrahydro-1H-pyrrolo[3′,2′:5,6]pyrido[4,3-d]pyrimidine-2,8-dione]
< 100 nM: all assays above
